Results published in US8906644B2, “Method for culture of hepatocytes” (The University of Tokyo, priority 2009, dated 2014).

Target: T1, drug transporter (MRP2) (Rattus norvegicus, UniProt Q63120)
T1 construct: endogenous in cells; host or cells: primary hepatocytes in collagen gel sandwich culture on a PDMS membrane device, with a polystyrene device for comparison
Assay: Measurement of MRP2 activity with CDCF (Bile Excretion Index) in collagen gel sandwiched hepatocytes
Assay type: in vitro ADME
Settings: Day 4 of culture, 5 μM CDCF, 5 minutes
Description: Using the collagen gel sandwiched hepatocytes that were cultured on the PDMS membrane culturing device prepared in Example 1 and forming bile canaliculi, the activity of a drug transporter (MRP2) was measured by incorporation of 5-(and-6)-carboxy-2′,7′-dichlorofluorescein (CDCF) as follows according to a Non-patent Document (Liu X et al., Am J Physiol, 1999, vol. 277, pp. 12-21). Further, hepatocytes cultured in a conventional polystyrene culturing device were used for comparison.
Ca/Mg(+) HBSS was prepared before use by mixing 50 mL of HBSS (Invitrogen, 14175-079), 500 μL of 14 g/L CaCl2 and 500 μL of 10 g/L MgCl2/6H2O together. In terms of the CDCF solution, a 5 μM CDCF solution was prepared before use by using 1 mM CDCF (in dimethyl sulfoxide: Molecular Probes, C-369) and Ca/Mg(+) HBSS, and the prepared solution was incubated in a water bath at 37° C. […]
Two hepatocyte cultures were prepared 4 days after the beginning of the culture (3 days after the deposition of the gel). […] A 100-μL aliquot was collected from each supernatant and subjected to measurement with a fluorescence microplate reader with excitation at 492 nm and fluorescence at 530 nm to quantify the amount of CDCF. […] The Bile Excretion Index (BEI) was calculated according to the following equation based on the fluorescent brightness per protein amount (Accumulation).

T1 sequence (Q63120 whole entry): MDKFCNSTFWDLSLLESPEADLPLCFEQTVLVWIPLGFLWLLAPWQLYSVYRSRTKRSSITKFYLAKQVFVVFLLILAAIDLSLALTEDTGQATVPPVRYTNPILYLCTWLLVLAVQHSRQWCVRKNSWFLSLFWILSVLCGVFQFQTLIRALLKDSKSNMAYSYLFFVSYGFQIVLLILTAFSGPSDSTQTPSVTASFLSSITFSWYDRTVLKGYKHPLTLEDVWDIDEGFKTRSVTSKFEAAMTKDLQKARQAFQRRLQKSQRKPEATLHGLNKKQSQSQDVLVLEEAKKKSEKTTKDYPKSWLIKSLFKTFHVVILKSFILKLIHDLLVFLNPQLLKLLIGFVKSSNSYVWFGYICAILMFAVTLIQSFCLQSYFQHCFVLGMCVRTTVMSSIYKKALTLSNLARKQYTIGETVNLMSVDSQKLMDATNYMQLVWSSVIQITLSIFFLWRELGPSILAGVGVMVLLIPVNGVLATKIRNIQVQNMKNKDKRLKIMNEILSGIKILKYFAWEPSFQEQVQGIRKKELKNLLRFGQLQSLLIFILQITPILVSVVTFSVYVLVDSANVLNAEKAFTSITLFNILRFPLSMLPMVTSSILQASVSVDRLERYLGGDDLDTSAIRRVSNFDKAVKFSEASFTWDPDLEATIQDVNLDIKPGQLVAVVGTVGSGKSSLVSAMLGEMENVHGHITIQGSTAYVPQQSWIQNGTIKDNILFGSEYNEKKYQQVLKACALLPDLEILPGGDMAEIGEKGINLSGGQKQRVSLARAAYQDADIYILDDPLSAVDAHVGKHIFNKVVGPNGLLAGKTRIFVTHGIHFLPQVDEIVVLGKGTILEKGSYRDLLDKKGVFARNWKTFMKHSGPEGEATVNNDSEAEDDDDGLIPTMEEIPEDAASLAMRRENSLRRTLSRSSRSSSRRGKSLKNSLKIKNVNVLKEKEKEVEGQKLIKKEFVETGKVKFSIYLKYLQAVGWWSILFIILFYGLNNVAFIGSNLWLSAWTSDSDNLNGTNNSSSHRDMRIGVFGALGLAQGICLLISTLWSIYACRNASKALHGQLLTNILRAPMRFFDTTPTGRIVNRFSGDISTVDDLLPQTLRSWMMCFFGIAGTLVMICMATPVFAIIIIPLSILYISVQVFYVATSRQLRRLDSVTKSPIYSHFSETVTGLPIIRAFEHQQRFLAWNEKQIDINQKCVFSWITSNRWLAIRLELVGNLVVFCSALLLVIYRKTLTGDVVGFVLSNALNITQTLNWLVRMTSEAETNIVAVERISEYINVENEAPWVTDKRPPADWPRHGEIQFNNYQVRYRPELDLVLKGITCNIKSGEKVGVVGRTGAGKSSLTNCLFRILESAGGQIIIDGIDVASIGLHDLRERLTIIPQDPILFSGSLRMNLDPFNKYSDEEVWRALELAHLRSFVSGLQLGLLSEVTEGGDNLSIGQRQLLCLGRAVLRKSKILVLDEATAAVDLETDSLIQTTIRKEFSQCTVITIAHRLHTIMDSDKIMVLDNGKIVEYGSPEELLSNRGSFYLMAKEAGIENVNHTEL

5-(and-6)-carboxy-2′,7′-dichlorofluorescein [CDCF]
Bile Excretion Index (BEI) (collagen gel sandwich on conventional polystyrene (PS) substrate): about 20% | Bile Excretion Index (BEI) (collagen gel sandwich on gas-permeable PDMS membrane culturing device): about 40%
